The test system of data set [1] is nematodes. The data set can be described thus: number of progeny of L1 larvae grown in the presence of ligand. In kind it is in vivo, C. elegans. The conditions noted are these: 5 μM 5-Ph-IAA, L1 larvae expressing AID*::GFP with AtTIR1 (F79G). The method, then:
Next, in order to confirm that 5-Ph-IAA is safer than IAA against nematodes, L1 larvae expressing AID*::GFP were each grown with AtTIR1 or AtTIR1 (F79G) in the presence of 1 mM IAA or 5 μM 5-Ph-IAA.

Data set [2] has as its target T1, AtTIR1 (F79G) (Arabidopsis thaliana, UniProt Q570C0, D170E/F79G/M473L). The data set can be described thus: AID*::GFP reporter degradation in embryos expressing AtTIR1 (F79G)::mRuby. In kind it is in vivo. Also on record: expressed in transfected cells. The method, then: Rapid removal of the target in the embryos is useful for analyzing a role of a protein in embryogenesis. Initially, 5-Ph-IAA was used to test the efficacy of protein removal in embryos. An egg-planting embryo expressing AtTIR1 (F79G)::mRuby and AID*::GFP was placed in a droplet of an M9 buffer including 50 μM 5-Ph-IAA, and then the reporter intensity was monitored (see FIG. 4A).
An egg-planting embryo expressing AtTIR1 (F79G)::mRuby and AID*::GFP was placed in a droplet of an M9 buffer including 50 μM 5-Ph-IAA-AM, and then the reporter intensity was monitored (see FIG. 4D).

In data set [3] the target is T1, AtTIR1 (F79G). In kind it is in vivo. Also on record: expressed in transfected cells; host or cells: transgenic C. elegans (CRISPR-Cas9 knock-in at the ttTi5605 locus; larvae, adults, embryos). The method, then:
(§1) Next, L1 larvae were grown on plates including ligands at different concentrations. The intensity of the AID*::GFP reporter of larvae (second generation) born from adults was monitored.
(§2) Furthermore, the efficacy of the AID2 system in adults was tested.

In data set [4] the target is T1, AtTIR1 (F79G). The data set can be described thus: AID*::GFP reporter degradation in adult nematodes expressing AtTIR1 (F79G). Format: in vivo. Also noted: expressed in transfected cells; host or cells: transgenic C. elegans (CRISPR-Cas9 knock-in at the ttTi5605 locus; larvae, adults, embryos). As to conditions: 5 μM 5-Ph-IAA for 4 hours. The method, then:
as §2

Data set [5] concerns the target AID*::GFP (Arabidopsis thaliana).
Data set [6] shares this target. This is another data set of the same source.
Data set [7] shares this target. This is another data set of the same source.
Data set [8] concerns the target T2, AtTIR1 (Arabidopsis thaliana, UniProt Q570C0, D170E/M473L).
T2 construct: expressed in transfected cells; host or cells: transgenic C. elegans (larvae)
The data set can be described thus: AID*::GFP reporter level in second generation larvae expressing AtTIR1, grown on ligand plates. In kind it is in vivo. As to conditions: combined with AtTIR1, larvae treated for one generation; read-out: estimated DC50 value (ligand concentrations required for 50% degradation). The method, then:
as §1, §2

T1 sequence (Q570C0 whole entry F79G/D170E/M473L): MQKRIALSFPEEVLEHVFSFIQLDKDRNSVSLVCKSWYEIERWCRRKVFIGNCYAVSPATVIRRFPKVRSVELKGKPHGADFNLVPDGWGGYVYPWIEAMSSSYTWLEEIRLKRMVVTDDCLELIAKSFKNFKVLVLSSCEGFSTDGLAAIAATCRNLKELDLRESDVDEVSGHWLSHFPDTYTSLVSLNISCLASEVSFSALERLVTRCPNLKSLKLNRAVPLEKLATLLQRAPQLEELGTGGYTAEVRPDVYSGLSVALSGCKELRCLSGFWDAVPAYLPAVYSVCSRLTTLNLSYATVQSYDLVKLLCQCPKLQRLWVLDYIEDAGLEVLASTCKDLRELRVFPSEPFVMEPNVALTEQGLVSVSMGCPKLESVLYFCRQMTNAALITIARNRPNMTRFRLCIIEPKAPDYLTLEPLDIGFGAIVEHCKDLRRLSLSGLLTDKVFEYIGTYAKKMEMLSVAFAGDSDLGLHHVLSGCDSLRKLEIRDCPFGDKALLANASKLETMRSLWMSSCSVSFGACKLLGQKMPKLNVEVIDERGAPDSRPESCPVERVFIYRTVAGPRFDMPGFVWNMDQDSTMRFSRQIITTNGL
T1 sequence (G5ECU1 whole entry, further chain): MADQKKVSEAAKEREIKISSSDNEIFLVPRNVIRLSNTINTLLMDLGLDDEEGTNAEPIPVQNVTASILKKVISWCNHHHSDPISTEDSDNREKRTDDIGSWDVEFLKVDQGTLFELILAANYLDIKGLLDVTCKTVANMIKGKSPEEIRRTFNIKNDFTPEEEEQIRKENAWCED
T1 sequence (P93830 71-114, further chain): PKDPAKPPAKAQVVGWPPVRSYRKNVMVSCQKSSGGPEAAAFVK
T2 sequence (G5ECU1 whole entry): as the sequence (G5ECU1 whole entry, further chain) above
T2 sequence (Q570C0 whole entry D170E/M473L): as the sequence (Q570C0 whole entry F79G/D170E/M473L) above, with G79F counted along it
T2 sequence (P93830 71-114, further chain): as the sequence (P93830 71-114, further chain) above

For the compound `O=C(O)Cc1c[nH]c2ccc(-c3ccccc3)cc12` [5-Ph-IAA, 5-phenylindole-3-acetic acid], in data set [1], the number of progeny entry was “showed no difference”. In addition, the “time at which degradation of the reporter reached the maximum” value in data set [2] (50 μM 5-Ph-IAA, embryos) is reported as 15 to 30 min. Further, the “embryos with rapid decrease of fluorescence intensity” value in data set [2] (50 μM in M9 buffer, 18/23 embryos) was determined as 78%; in data set [2] (100 μM, 16/20 embryos), 80%. For the same compound, the “AID*::GFP reporter expression in second generation larvae” value in data set [3] (5.0 μM 5-Ph-IAA, among different ligand concentrations) was “lowest reporter expression”. Moreover, the “ligand concentration required, times lower than that of the AID system (IAA with AtTIR1)” value in data set [3] (long-term treatment, AID2 system vs AID system) is on record as “about 1,300 times”. For the same compound, in data set [3] (read-out: estimated DC50 value (ligand concentrations required for 50% degradation), combined with AtTIR1 (F79G), larvae treated for one generation), the DC50 is 0.0045 µM. In data set [4], the “AID*::GFP reporter in adults” value is “a loss of the reporter was observed”.

Turning to `CC(=O)OCOC(=O)Cc1c[nH]c2ccc(-c3ccccc3)cc12` [5-Ph-IAA-AM, 5-phenylindole 3-acetic acid acetoxymethyl ester], the “degradation of AID*::GFP reporter in embryos” value in data set [2] (50 μM 5-Ph-IAA-AM in M9 buffer) is reported as “rapid degradation in all embryos”.

As for AtTIR1 (F79G)::mRuby, the half-life of the AID*::GFP reporter level in larvae treated with 5 µM 5-Ph-IAA in data set [5] was determined as 15.5 min. This compound also returned a DC50 (ligand concentration required for 50% degradation) of 5-Ph-IAA, AID*::GFP reporter in larvae treated for one generation in data set [6] of 0.0045 µM.

In data set [7], AtTIR1::mRuby had an intensity of AID*::GFP in larvae, no ligand added (basal degradation) of 73%. In data set [5], this compound came in with a half-life of the AID*::GFP reporter level in larvae treated with 1 mM IAA of 16.8 min. Besides, in data set [6], the DC50 (ligand concentration required for 50% degradation) of IAA, AID*::GFP reporter in larvae treated for one generation was 59 µM.

On to `O=C(O)Cc1c[nH]c2ccccc12` [IAA], for which the DC50 in data set [8] was 59 µM.

Source of the values: patent US20250122250A1, “AUXIN-DEGRON SYSTEM KIT AND USE THEREFOR” (Inter-University Research Institute Corporation Research …, priority 2021, published 2025).
